Source: patent US9505745B2, “Enhancer of zeste homolog 2 inhibitors” (GlaxoSmithKline Intellectual Property (No.2) Limited, priority 2013, dated 2016)
Counter-ions that a name gives are not always drawn.

Biological target: EZH2 within the PRC2 complex (Homo sapiens (Human), UniProt Q15910)
Test: EZH2 methyltransferase SPA, biotinylated histone H3K27 peptide substrate (Assay Protocol 2)
Format: biochemical
Details: 3H-SAM, ≦10 nM approaches limit of detection
Protocol: Compounds contained herein were evaluated for their ability to inhibit the methyltransferase activity of EZH2 within the PRC2 complex. Human PRC2 complex was prepared by co-expressing each of the 5 member proteins (FLAG-EZH2, EED, SUZ12, RbAp48, AEBP2) in Sf9 cells followed by co-purification. Enzyme activity was measured in a scintillation proximity assay (SPA) where a tritiated methyl group is transferred from 3H-SAM to a lysine residue on a biotinylated, unmethylated peptide substrate derived from histone H3. The peptides were captured on streptavidin-coated SPA beads and the resulting signal was read on a ViewLux plate reader.
Part A. Compound Preparation
• 4. Prepare 10 mM stock of compounds from solid in 100% DMSO. • 5. Set up an 11-point serial dilution (1:4 dilution, top concentration 10 mM) in 100% DMSO for each test compound in a 384 well plate leaving columns 6 and 18 for DMSO controls. • 6. Dispense 10 nL of compound from the dilution plate into reaction plates (Corning, 384-well polystyrene NBS, Cat#3673). Part B. Reagent Preparation Prepare the following solutions: • 7. 1× Base Buffer, 50 mM Tris-HCl, pH 8, 2 mM MgCl2: Per 1 L of base buffer, combine 1 M Tris-HCl, pH 8 (50 mL), 1 M MgCl2 (2 mL), and distilled water (948 mL). • 8. 1× Assay Buffer: Per 10 mL of 1× Assay Buffer, combine 1× Base Buffer (9.96 mL), 1 M DTT (40 uL), and 10% Tween-20 (1 uL) to provide a final concentration of 50 mM Tris-HCl, pH 8, 2 mM MgCl2, 4 mM DTT, 0.001% Tween-20. • 9. 2× Enzyme Solution: Per 10 mL of 2× Enzyme Solution, combine 1× Assay Buffer (9.99 mL) and 3.24 uM EZH2 5 member complex (6.17 uL) to provide a final enzyme concentration of 1 nM. • 10. SPA Bead Solution: Per 1 mL of SPA Bead Solution, combine Streptavidin coated SPA beads (PerkinElmer, Cat#RPNQ0261, 40 mg) and 1× Assay Buffer (1 mL) to provide a working concentration of 40 mg/mL. • 11. 2× Substrate Solution: Per 10 mL of 2× Substrate Solution, combine 40 mg/mL SPA Bead Solution (375 uL), 1 mM biotinylated histone H3K27 peptide (200 uL), 12.5 uM 3H-SAM (240 uL; 1 mCi/mL), 1 mM cold SAM (57 uL), and 1× Assay Buffer (9.13 mL) to provide a final concentration of 0.75 mg/mL SPA Bead Solution, 10 uM biotinylated histone H3K27 peptide, 0.15 uM 3H-SAM (˜12 uCi/mL 3H-SAM), and 2.85 uM cold SAM. • 12. 2.67× Quench Solution: Per 10 mL of 2.67× Quench Solution, combine 1× Assay Buffer (9.73 mL) and 10 mM cold SAM (267 uL) to provide a final concentration of 100 uM cold SAM. Part C. Assay Reaction in 384-well Grenier Bio-One Plates Compound Addition • 3. Stamp 10 nL/well of 1000× Compound to test wells (as noted above). • 4. Stamp 10 nL/well of 100% DMSO to columns 6 & 18 (high and low controls, respectively). Assay • 10. Dispense 5 uL/well of 1× Assay Buffer to column 18 (low control reactions). • 11. Dispense 5 uL/well of 2× Substrate Solution to columns 1-24 (note: substrate solution should be mixed to ensure homogeneous bead suspension before dispensing into matrix reservoir). • 12. Dispense 5 uL/well of 2× Enzyme Solution to columns 1-17, 19-24. • 13. Incubate the reaction for 60 min at room temperature. Quench • 5. Dispense 6 uL/well of the 2.67× Quench Solution to columns 1-24. • 6. Seal assay plates and spin for ˜1 min at 500 rpm. • 7. Dark adapt plates in the ViewLux instrument for 15-60 min. Read plates • 2. Read the assay plates on the Viewlux Plate Reader utilizing the 613 nm emission filter or clear filter (300 s exposure). Reagent addition can be done manually or with automated liquid handler. Results
Percent inhibition was calculated relative to the DMSO control for each compound concentration and the resulting values were fit using standard IC50 fitting parameters within the ABASE data fitting software package.

Chain of EZH2 within the PRC2 complex (Q15910 whole entry): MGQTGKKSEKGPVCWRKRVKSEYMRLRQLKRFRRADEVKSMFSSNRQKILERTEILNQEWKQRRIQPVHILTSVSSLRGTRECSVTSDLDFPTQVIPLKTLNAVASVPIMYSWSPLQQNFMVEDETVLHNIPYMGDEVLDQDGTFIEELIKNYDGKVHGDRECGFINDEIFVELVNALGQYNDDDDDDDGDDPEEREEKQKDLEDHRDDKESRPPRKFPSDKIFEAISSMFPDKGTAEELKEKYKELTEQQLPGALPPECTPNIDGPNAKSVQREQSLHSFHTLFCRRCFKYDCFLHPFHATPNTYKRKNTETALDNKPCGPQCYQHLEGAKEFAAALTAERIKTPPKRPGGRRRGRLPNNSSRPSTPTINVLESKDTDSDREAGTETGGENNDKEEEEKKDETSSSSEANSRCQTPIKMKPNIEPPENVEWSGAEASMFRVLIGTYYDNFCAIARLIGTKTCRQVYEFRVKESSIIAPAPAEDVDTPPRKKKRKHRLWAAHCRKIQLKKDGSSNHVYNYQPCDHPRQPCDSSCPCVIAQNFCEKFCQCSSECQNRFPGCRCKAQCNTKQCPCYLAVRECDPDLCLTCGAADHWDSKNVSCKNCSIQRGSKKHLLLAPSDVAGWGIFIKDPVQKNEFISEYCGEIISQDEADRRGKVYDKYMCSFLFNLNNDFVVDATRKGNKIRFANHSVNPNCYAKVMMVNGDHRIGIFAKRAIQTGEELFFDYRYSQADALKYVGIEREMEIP
Chain of EZH2 within the PRC2 complex (O75530 whole entry partner): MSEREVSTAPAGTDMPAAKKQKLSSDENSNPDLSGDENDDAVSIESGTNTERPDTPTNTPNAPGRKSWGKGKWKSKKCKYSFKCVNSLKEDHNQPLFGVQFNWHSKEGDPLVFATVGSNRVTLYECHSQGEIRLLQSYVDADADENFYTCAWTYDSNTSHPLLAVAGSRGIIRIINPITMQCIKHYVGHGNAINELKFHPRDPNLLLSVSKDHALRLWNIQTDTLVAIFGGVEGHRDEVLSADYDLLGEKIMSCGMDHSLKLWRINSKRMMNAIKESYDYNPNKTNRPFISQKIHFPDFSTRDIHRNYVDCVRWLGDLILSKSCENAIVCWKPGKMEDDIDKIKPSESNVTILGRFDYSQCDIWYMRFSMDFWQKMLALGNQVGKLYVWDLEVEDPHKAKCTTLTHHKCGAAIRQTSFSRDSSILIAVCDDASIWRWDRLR
Chain of EZH2 within the PRC2 complex (Q15022 whole entry partner): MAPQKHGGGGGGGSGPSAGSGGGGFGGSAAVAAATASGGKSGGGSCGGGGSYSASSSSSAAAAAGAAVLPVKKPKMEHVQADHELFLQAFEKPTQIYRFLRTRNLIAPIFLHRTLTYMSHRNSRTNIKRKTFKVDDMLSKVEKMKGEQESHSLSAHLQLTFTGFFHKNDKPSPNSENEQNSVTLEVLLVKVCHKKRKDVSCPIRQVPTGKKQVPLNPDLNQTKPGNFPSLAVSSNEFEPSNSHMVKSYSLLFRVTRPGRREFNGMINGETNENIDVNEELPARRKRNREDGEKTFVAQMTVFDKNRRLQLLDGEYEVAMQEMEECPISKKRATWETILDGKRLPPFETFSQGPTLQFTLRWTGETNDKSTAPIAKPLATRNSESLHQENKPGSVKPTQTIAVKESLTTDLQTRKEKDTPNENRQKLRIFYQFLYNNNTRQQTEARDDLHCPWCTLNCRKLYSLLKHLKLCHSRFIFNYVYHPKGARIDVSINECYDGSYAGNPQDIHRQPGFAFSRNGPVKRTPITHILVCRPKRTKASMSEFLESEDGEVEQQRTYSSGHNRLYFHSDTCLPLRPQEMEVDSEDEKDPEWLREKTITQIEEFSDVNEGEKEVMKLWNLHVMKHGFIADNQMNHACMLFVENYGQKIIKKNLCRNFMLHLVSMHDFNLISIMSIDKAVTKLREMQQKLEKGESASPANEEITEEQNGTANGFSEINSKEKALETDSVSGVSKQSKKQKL
Chain of EZH2 within the PRC2 complex (Q09028 whole entry partner): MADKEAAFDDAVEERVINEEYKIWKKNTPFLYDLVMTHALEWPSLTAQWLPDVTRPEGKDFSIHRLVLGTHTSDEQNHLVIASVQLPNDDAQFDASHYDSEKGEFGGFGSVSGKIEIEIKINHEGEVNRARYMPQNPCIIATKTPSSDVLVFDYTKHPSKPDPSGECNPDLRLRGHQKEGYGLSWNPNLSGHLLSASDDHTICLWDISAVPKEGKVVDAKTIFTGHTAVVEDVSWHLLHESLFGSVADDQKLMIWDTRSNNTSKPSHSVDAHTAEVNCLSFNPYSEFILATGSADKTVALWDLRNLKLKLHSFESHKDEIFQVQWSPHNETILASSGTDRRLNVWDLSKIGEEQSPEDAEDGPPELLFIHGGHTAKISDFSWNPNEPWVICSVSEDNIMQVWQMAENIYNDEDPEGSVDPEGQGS
Chain of EZH2 within the PRC2 complex (Q6ZN18 whole entry partner): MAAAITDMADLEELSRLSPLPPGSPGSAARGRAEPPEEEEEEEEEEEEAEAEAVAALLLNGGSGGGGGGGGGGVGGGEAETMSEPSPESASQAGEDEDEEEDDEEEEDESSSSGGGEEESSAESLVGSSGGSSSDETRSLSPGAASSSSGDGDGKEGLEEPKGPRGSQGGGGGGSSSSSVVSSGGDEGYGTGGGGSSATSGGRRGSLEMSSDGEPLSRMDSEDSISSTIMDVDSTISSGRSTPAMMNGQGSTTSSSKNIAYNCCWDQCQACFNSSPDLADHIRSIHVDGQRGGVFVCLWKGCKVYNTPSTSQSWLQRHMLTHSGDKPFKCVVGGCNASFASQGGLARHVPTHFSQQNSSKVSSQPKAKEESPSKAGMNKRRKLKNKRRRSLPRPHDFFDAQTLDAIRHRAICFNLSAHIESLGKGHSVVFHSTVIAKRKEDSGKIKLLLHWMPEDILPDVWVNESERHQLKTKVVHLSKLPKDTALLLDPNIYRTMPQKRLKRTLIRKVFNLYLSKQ

| SMILES | IC50 |
| --- | --- |
| CC[C@H](c1scc(C(=O)NCc2c(C)cc(C)[nH]c2=O)c1C)N1CCC(N(C)C)CC1 [Example 42, (R)-(+)-N-((4,6-dimethyl-2-oxo-1,2-dihydropyridin-3-yl)methyl)-5-(1-(4-(dimethylamino)piperidin-1-yl)propyl)-4-methylthiophene-3-carboxamide] | 316 nM |
| C=C(c1scc(C(=O)NCc2c(C)cc(C)[nH]c2=O)c1C)C1CCNCC1 [Example 49, N-((4,6-dimethyl-2-oxo-1,2-dihydropyridin-3-yl)methyl)-4-methyl-5-(1-(piperidin-4-yl)vinyl)thiophene-3-carboxamide] | 126 nM |
| CCN(CC)c1sc(Br)c(C(=O)NCc2c(C)cc(C)[nH]c2=O)c1C [Example 52, 2-Bromo-5-(diethylamino)-N-((4,6-dimethyl-2-oxo-1,2-dihydropyridin-3-yl)methyl)-4-methylthiophene-3-carboxamide] | 316 nM |
| CCN(c1sc(N2CCN(C)CC2)c(C(=O)NCc2c(C)cc(C)[nH]c2=O)c1C)C1CCOCC1 [Example 56, N-((4,6-Dimethyl-2-oxo-1,2-dihydropyridin-3-yl)methyl)-5-(ethyl(tetrahydro-2H-pyran-4-yl)amino)-4-methyl-2-(4-methylpiperazin-1-yl)thiophene-3-carboxamide hydrochloride] | 501 nM |
| CCN(c1sc(C2CCN(C(=O)OC(C)(C)C)C2)c(C(=O)NCc2c(C)cc(C)[nH]c2=O)c1C)C1CCOCC1 (centres unmarked) [Example 57, tert-Butyl 3-(3-(((4,6-dimethyl-2-oxo-1,2-dihydropyridin-3-yl)methyl)carbamoyl)-5-(ethyl(tetrahydro-2H-pyran-4-yl)amino)-4-methylthiophen-2-yl)pyrrolidine-1-carboxylate] | 200 nM |
| CCN(c1sc(C2CCNC2)c(C(=O)NCc2c(C)cc(C)[nH]c2=O)c1C)C1CCOCC1 (centres unmarked) [Example 58, N-((4,6-Dimethyl-2-oxo-1,2-dihydropyridin-3-yl)methyl)-5-(ethyl(tetrahydro-2H-pyran-4-yl)amino)-4-methyl-2-(pyrrolidin-3-yl)thiophene-3-carboxamide hydrochloride] | 794 nM |
| CCN(c1sc(C2CCN(C(=O)OC(C)(C)C)CC2)c(C(=O)NCc2c(C)cc(C)[nH]c2=O)c1C)C1CCOCC1 [Example 59, tert-Butyl 4-(3-(((4,6-dimethyl-2-oxo-1,2-dihydropyridin-3-yl)methyl)carbamoyl)-5-(ethyl(tetrahydro-2H-pyran-4-yl)amino)-4-methylthiophen-2-yl)piperidine-1-carboxylate] | 316 nM |
| CCN(c1sc(C2CCNCC2)c(C(=O)NCc2c(C)cc(C)[nH]c2=O)c1C)C1CCOCC1 [Example 60, N-((4,6-Dimethyl-2-oxo-1,2-dihydropyridin-3-yl)methyl)-5-(ethyl(tetrahydro-2H-pyran-4-yl)amino)-4-methyl-2-(piperidin-4-yl)thiophene-3-carboxamide hydrochloride] | 631 nM |
| CCN(c1sc(C2=CCN(C)CC2)c(C(=O)NCc2c(C)cc(C)[nH]c2=O)c1C)C1CCOCC1 [Example 61, N-((4,6-Dimethyl-2-oxo-1,2-dihydropyridin-3-yl)methyl)-5-(ethyl(tetrahydro-2H-pyran-4-yl)amino)-4-methyl-2-(1-methyl-1,2,3,6-tetrahydropyridin-4-yl)thiophene-3-carboxamide] | 501 nM |
| CCN(c1sc(C2CCN(S(C)(=O)=O)C2)c(C(=O)NCc2c(C)cc(C)[nH]c2=O)c1C)C1CCOCC1 (centres unmarked) [Example 62, N-((4,6-Dimethyl-2-oxo-1,2-dihydropyridin-3-yl)methyl)-5-(ethyl(tetrahydro-2H-pyran-4-yl)amino)-4-methyl-2-(1-(methylsulfonyl)pyrrolidin-3-yl)thiophene-3-carboxamide] | 501 nM |
| CCN(c1sc(C2CCN(S(C)(=O)=O)CC2)c(C(=O)NCc2c(C)cc(C)[nH]c2=O)c1C)C1CCOCC1 [Example 63, N-((4,6-Dimethyl-2-oxo-1,2-dihydropyridin-3-yl)methyl)-5-(ethyl(tetrahydro-2H-pyran-4-yl)amino)-4-methyl-2-(1-(methylsulfonyl)piperidin-4-yl)thiophene-3-carboxamide] | 501 nM |

Molecules with a lower IC50, results first:

| IC50 | SMILES |
| --- | --- |
| 20 nM | CC[C@@H](c1scc(C(=O)NCc2c(C)cc(C)[nH]c2=O)c1C)N1CCC(N(C)C)CC1 [Example 41, (S)-(−)-N-((4,6-Dimethyl-2-oxo-1,2-dihydropyridin-3-yl)methyl)-5-(1-(4-(dimethylamino)piperidin-1-yl)propyl)-4-methylthiophene-3-carboxamide] |
| 16 nM | CCC(c1scc(C(=O)NCc2c(C)cc(C)[nH]c2=O)c1C)[C@H]1CC[C@H](N)CC1 (stereo partly drawn) [Example 43, 5-(1-((trans)-4-Aminocyclohexyl)propyl)-N-((4,6-dimethyl-2-oxo-1,2-dihydropyridin-3-yl)methyl)-4-methylthiophene-3-carboxamide] |
| ≤ 10 nM | CCC(=C1CCNCC1)c1scc(C(=O)NCc2c(C)cc(C)[nH]c2=O)c1C [Example 48, N-((4,6-dimethyl-2-oxo-1,2-dihydropyridin-3-yl)methyl)-4-methyl-5-(1-(piperidin-4-ylidene)propyl)thiophene-3-carboxamide] |
| 20 nM | CCN(c1sc(Br)c(C(=O)NCc2c(C)cc(C)[nH]c2=O)c1C)[C@H]1CC[C@H](N(C)C)CC1 [Example 50, 2-Bromo-N-((4,6-dimethyl-2-oxo-1,2-dihydropyridin-3-yl)methyl)-5-(((trans)-4-(dimethylamino)cyclohexyl)(ethyl)amino)-4-methylthiophene-3-carboxamide hydrochloride] |
| 25 nM | CCN(c1sc(C#N)c(C(=O)NCc2c(C)cc(C)[nH]c2=O)c1C)[C@H]1CC[C@H](N(C)C)CC1 [Example 51, 2-Cyano-N-((4,6-dimethyl-2-oxo-1,2-dihydropyridin-3-yl)methyl)-5-(((trans)-4-(dimethylamino)cyclohexyl)(ethyl)amino)-4-methylthiophene-3-carboxamide] |
| 16 nM | CCN(c1sc(Cl)c(C(=O)NCc2c(C)cc(C)[nH]c2=O)c1C)C1CCOCC1 [Example 53, 2-Chloro-N-((4,6-dimethyl-2-oxo-1,2-dihydropyridin-3-yl)methyl)-5-(ethyl(tetrahydro-2H-pyran-4-yl)amino)-4-methylthiophene-3-carboxamide] |
| 32 nM | CCN(c1sc(C)c(C(=O)NCc2c(C)cc(C)[nH]c2=O)c1C)C1CCOCC1 [Example 54, N-((4,6-Dimethyl-2-oxo-1,2-dihydropyridin-3-yl)methyl)-5-(ethyl(tetrahydro-2H-pyran-4-yl)amino)-2,4-dimethylthiophene-3-carboxamide hydrochloride] |
| 79 nM | CCN(c1sc(C#N)c(C(=O)NCc2c(C)cc(C)[nH]c2=O)c1C)C1CCOCC1 [Example 55, 2-Cyano-N-((4,6-dimethyl-2-oxo-1,2-dihydropyridin-3-yl)methyl)-5-(ethyl(tetrahydro-2H-pyran-4-yl)amino)-4-methylthiophene-3-carboxamide hydrochloride] |
| 16 nM | CCN(C)[C@H]1CC[C@H](N(CC)c2scc(C(=O)NCc3c(C)cc(C)[nH]c3=O)c2C)CC1 [Example 64, N-((4,6-dimethyl-2-oxo-1,2-dihydropyridin-3-yl)methyl)-5-(ethyl((trans)-4-(ethyl(methyl)amino)cyclohexyl)amino)-4-methylthiophene-3-carboxamide] |
